PMC12848717, “Discovery of Encrypted Peptides in a Human Matrix Metallopeptidase” (JACS Au, 2025)

Assays:
[1] = tested on: S. epidermidis ATCC 35984; conditions: Table S4; for MIC after treatment 1: serial exposure at MIC/2, treatment 1 of 21; for MIC after treatment 2: serial exposure at MIC/2, treatment 2 of 21; for MIC after treatment 3: serial exposure at MIC/2, treatment 3 of 21; for MIC after treatment 4: serial exposure at MIC/2, treatment 4 of 21; for MIC after treatment 5: serial exposure at MIC/2, treatment 5 of 21; for MIC after treatment 6: serial exposure at MIC/2, treatment 6 of 21; for MIC after treatment 7: serial exposure at MIC/2, treatment 7 of 21; for MIC after treatment 8: serial exposure at MIC/2, treatment 8 of 21; for MIC after treatment 9: serial exposure at MIC/2, treatment 9 of 21; for MIC after treatment 10: serial exposure at MIC/2, treatment 10 of 21; for MIC after treatment 11: serial exposure at MIC/2, treatment 11 of 21; for MIC after treatment 12: serial exposure at MIC/2, treatment 12 of 21; for MIC after treatment 13: serial exposure at MIC/2, treatment 13 of 21; for MIC after treatment 14: serial exposure at MIC/2, treatment 14 of 21; for MIC after treatment 15: serial exposure at MIC/2, treatment 15 of 21; for MIC after treatment 16: serial exposure at MIC/2, treatment 16 of 21; for MIC after treatment 17: serial exposure at MIC/2, treatment 17 of 21; for MIC after treatment 18: serial exposure at MIC/2, treatment 18 of 21; for MIC after treatment 19: serial exposure at MIC/2, treatment 19 of 21; for MIC after treatment 20: serial exposure at MIC/2, treatment 20 of 21; for MIC after treatment 21: serial exposure at MIC/2, treatment 21 of 21
A. baumannii ATCC 19606 = conditions: Table S3; for MIC after treatment 1: serial exposure at MIC/2, treatment 1 of 21; for MIC after treatment 2: serial exposure at MIC/2, treatment 2 of 21; for MIC after treatment 3: serial exposure at MIC/2, treatment 3 of 21; for MIC after treatment 4: serial exposure at MIC/2, treatment 4 of 21; for MIC after treatment 5: serial exposure at MIC/2, treatment 5 of 21; for MIC after treatment 6: serial exposure at MIC/2, treatment 6 of 21; for MIC after treatment 7: serial exposure at MIC/2, treatment 7 of 21; for MIC after treatment 8: serial exposure at MIC/2, treatment 8 of 21; for MIC after treatment 9: serial exposure at MIC/2, treatment 9 of 21; for MIC after treatment 10: serial exposure at MIC/2, treatment 10 of 21; for MIC after treatment 11: serial exposure at MIC/2, treatment 11 of 21; for MIC after treatment 12: serial exposure at MIC/2, treatment 12 of 21; for MIC after treatment 13: serial exposure at MIC/2, treatment 13 of 21; for MIC after treatment 14: serial exposure at MIC/2, treatment 14 of 21; for MIC after treatment 15: serial exposure at MIC/2, treatment 15 of 21; for MIC after treatment 16: serial exposure at MIC/2, treatment 16 of 21; for MIC after treatment 17: serial exposure at MIC/2, treatment 17 of 21; for MIC after treatment 18: serial exposure at MIC/2, treatment 18 of 21; for MIC after treatment 19: serial exposure at MIC/2, treatment 19 of 21; for MIC after treatment 20: serial exposure at MIC/2, treatment 20 of 21; for MIC after treatment 21: serial exposure at MIC/2, treatment 21 of 21

Colistin [reference compound]
MIC after treatment 1 [1]: 8 µM
MIC after treatment 2 [1]: 8 µM
MIC after treatment 3 [1]: 8 µM
MIC after treatment 4 [1]: 8 µM
MIC after treatment 5 [1]: 8 µM
MIC after treatment 6 [1]: 8 µM
MIC after treatment 7 [1]: 8 µM
MIC after treatment 8 [1]: 8 µM
MIC after treatment 9 [1]: 8 µM
MIC after treatment 10 [1]: 8 µM
MIC after treatment 11 [1]: 8 µM
MIC after treatment 12 [1]: 8 µM
MIC after treatment 13 [1]: 8 µM
MIC after treatment 14 [1]: 8 µM
MIC after treatment 15 [1]: 8 µM
MIC after treatment 16 [1]: 8 µM
MIC after treatment 17 [1]: 8 µM
MIC after treatment 18 [1]: 8 µM
MIC after treatment 19 [1]: 8 µM
MIC after treatment 20 [1]: 8 µM
MIC after treatment 21 [1]: 8 µM
MIC after treatment 1 (A. baumannii ATCC 19606): 4 µM
MIC after treatment 2 (A. baumannii ATCC 19606): 4 µM
MIC after treatment 3 (A. baumannii ATCC 19606): 4 µM
MIC after treatment 4 (A. baumannii ATCC 19606): 4 µM
MIC after treatment 5 (A. baumannii ATCC 19606): 4 µM
MIC after treatment 6 (A. baumannii ATCC 19606): 4 µM
MIC after treatment 7 (A. baumannii ATCC 19606): 4 µM
MIC after treatment 8 (A. baumannii ATCC 19606): 4 µM
MIC after treatment 9 (A. baumannii ATCC 19606): 4 µM
MIC after treatment 10 (A. baumannii ATCC 19606): 4 µM
MIC after treatment 11 (A. baumannii ATCC 19606): 4 µM
MIC after treatment 12 (A. baumannii ATCC 19606): 4 µM
MIC after treatment 13 (A. baumannii ATCC 19606): 4 µM
MIC after treatment 14 (A. baumannii ATCC 19606): 4 µM
MIC after treatment 15 (A. baumannii ATCC 19606): 4 µM
MIC after treatment 16 (A. baumannii ATCC 19606): 4 µM
MIC after treatment 17 (A. baumannii ATCC 19606): 4 µM
MIC after treatment 18 (A. baumannii ATCC 19606): 4 µM
MIC after treatment 19 (A. baumannii ATCC 19606): 4 µM
MIC after treatment 20 (A. baumannii ATCC 19606): 4 µM
MIC after treatment 21 (A. baumannii ATCC 19606): 4 µM

Polymyxin B [reference compound]
MIC after treatment 1 [1]: 4 µM
MIC after treatment 2 [1]: 4 µM
MIC after treatment 3 [1]: 4 µM
MIC after treatment 4 [1]: 4 µM
MIC after treatment 5 [1]: 4 µM
MIC after treatment 6 [1]: 4 µM
MIC after treatment 7 [1]: 4 µM
MIC after treatment 8 [1]: 4 µM
MIC after treatment 9 [1]: 4 µM
MIC after treatment 10 [1]: 4 µM
MIC after treatment 11 [1]: 4 µM
MIC after treatment 12 [1]: 4 µM
MIC after treatment 13 [1]: 4 µM
MIC after treatment 14 [1]: 4 µM
MIC after treatment 15 [1]: 4 µM
MIC after treatment 16 [1]: 4 µM
MIC after treatment 17 [1]: 4 µM
MIC after treatment 18 [1]: 4 µM
MIC after treatment 19 [1]: 4 µM
MIC after treatment 20 [1]: 4 µM
MIC after treatment 21 [1]: 4 µM
MIC after treatment 1 (A. baumannii ATCC 19606): 2 µM
MIC after treatment 2 (A. baumannii ATCC 19606): 2 µM
MIC after treatment 3 (A. baumannii ATCC 19606): 2 µM
MIC after treatment 4 (A. baumannii ATCC 19606): 2 µM
MIC after treatment 5 (A. baumannii ATCC 19606): 2 µM
MIC after treatment 6 (A. baumannii ATCC 19606): 2 µM
MIC after treatment 7 (A. baumannii ATCC 19606): 2 µM
MIC after treatment 8 (A. baumannii ATCC 19606): 2 µM
MIC after treatment 9 (A. baumannii ATCC 19606): 2 µM
MIC after treatment 10 (A. baumannii ATCC 19606): 2 µM
MIC after treatment 11 (A. baumannii ATCC 19606): 2 µM
MIC after treatment 12 (A. baumannii ATCC 19606): 2 µM
MIC after treatment 13 (A. baumannii ATCC 19606): 2 µM
MIC after treatment 14 (A. baumannii ATCC 19606): 2 µM
MIC after treatment 15 (A. baumannii ATCC 19606): 2 µM
MIC after treatment 16 (A. baumannii ATCC 19606): 2 µM
MIC after treatment 17 (A. baumannii ATCC 19606): 2 µM
MIC after treatment 18 (A. baumannii ATCC 19606): 2 µM
MIC after treatment 19 (A. baumannii ATCC 19606): 2 µM
MIC after treatment 20 (A. baumannii ATCC 19606): 2 µM
MIC after treatment 21 (A. baumannii ATCC 19606): 2 µM
